Data reported in ChEMBL document CHEMBL1201862, “PubChem BioAssay data set” (2004).
Active and inactive are the calls of the source.

Key:
[1] = biological target: Mothers against decapentaplegic homolog 3 (Homo sapiens, UniProt P84022); assay: SMAD3 transcription factor inhibitors, dose response (AID 715); type: functional
[2] = biological target: Protein-tyrosine kinase 2-beta (Homo sapiens, UniProt Q14289);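 also: potency of inhibitors of PYK2 kinase phosphorylation of poly-GT substrate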
[3] = biological target: 26S proteasome non-ATPase regulatory subunit 14 (Homo sapiens, UniProt O00487); assay: inhibition of proteasome subunit RPN11 – biochemical, fluorescence polarization, uHTS hits, confirmation (AID 602368); type: functional
[4] = biological target: 72 kDa type IV collagenase (Homo sapiens, UniProt P08253); assay: Dose Response validation of uHTS RPN11 inhibitor hits using a MMP-2 Fluorescence assay.; type: functional
[5] = biological target: Prothrombin (Bos taurus, UniProt P00735); assay: thrombin inhibition, dose response, biochemical, fluorescence polarization, uHTS hits (AID 602369); type: functional
[6] = biological target: Cytochrome P450 2C9 (Homo sapiens, UniProt P11712); details: Potency
[7] = biological target: Cytochrome P450 2D6 (Homo sapiens, UniProt P10635); assay: qHTS Assay for Inhibitors and Substrates of Cytochrome P450 2D6. [Related pubchem assays: 410 ]; type: ADME; details: read-out: Potency
[8] = biological target: Protein Rev (Human immunodeficiency virus type 1 group M subtype B (isolate WMJ22)(HIV-1), UniProt P05866); assay: HIV-1 Rev-RRE RNA binding disruptors, dose response, biochemical, protein-RNA interaction (AID 842); parameters: species or system Human immunodeficiency virus 1
[9] = tested on: Streptococcus sp. 'group A'; assay: growth inhibition of control SK(-) GAS strain, dose response, counter-screen for streptokinase expression inhibitor project, luminescence, kanamycin, BacTiterGlo, confirmation (AID 1900); type: functional, organism-based
[10] = biological target: T1, Streptokinase A (Streptococcus pyogenes serotype M1, UniProt P10520); assay: S. pyogenes streptokinase expression inhibitors, potency, dose response, plasminogen activation absorbance, OD405 (AID 1914); type: functional, Streptococcus pyogenes M1 GAS;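 also: secreted streptokinase activity via plasminogen activation per viability signal from cell pellet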
T1 sequence (P10520 whole entry): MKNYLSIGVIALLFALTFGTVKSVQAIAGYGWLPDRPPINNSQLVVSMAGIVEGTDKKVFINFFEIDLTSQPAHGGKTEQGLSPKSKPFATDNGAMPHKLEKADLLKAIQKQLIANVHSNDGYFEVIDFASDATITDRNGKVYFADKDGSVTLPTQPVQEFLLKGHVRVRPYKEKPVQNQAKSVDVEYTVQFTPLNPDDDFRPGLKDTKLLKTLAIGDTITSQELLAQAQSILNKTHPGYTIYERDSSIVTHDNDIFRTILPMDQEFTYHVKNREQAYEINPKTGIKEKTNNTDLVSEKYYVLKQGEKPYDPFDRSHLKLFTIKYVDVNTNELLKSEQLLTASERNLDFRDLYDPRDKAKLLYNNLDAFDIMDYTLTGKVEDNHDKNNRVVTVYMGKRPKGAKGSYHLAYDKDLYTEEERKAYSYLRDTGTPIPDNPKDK

[11] = HIV-1 Env-mediated cell fusion inhibitors, dose response, CCR5-tropic Env (AID 2279); type: functional
[12] = tested on: Streptococcus; assay: Group A Streptococcus viability loss, dose response, counter-screen for streptokinase expression inhibitor project, luminescence, BacTiterGlo (AID 1915); type: functional, organism-based;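 also: potency for reduction of bacterial viability or growth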
[13] = biological target: T2, Microphthalmia-associated transcription factor (Homo sapiens, UniProt O75030); assay: TRPM1 promoter luciferase signal decrease, dose response, MITF inhibitor project, cell-based, SK-MEL-5, cherry-picked, set 3 (AID 493073); type: functional
T2 sequence (O75030 whole entry): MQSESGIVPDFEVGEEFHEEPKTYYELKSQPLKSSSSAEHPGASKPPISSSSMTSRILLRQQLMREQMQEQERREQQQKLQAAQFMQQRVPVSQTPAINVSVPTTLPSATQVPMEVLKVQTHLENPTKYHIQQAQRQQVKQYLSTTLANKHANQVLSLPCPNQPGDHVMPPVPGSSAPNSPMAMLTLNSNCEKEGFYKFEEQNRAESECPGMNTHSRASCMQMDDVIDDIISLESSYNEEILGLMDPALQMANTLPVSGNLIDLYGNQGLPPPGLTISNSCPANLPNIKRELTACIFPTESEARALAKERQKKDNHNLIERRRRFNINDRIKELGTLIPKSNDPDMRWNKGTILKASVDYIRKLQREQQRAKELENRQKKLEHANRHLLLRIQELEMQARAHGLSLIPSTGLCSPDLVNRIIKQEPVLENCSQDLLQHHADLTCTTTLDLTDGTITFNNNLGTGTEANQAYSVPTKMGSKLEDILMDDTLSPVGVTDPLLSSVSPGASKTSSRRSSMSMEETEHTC

[14] = biological target: Large T antigen (Simian virus 40, UniProt P03070); type: functional, Betapolyomavirus macacae;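 also: Confirmatory-stage PubChem screen for compounds that inhibit SV40 T antigen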
[15] = biological target: T3, Mannose-6-phosphate isomerase (Homo sapiens, UniProt P34949); assay: inhibitors of human PMI, primary screen, biochemical, fluorescence intensity, coupled assay (AID 1209)
T3 sequence (P34949 whole entry): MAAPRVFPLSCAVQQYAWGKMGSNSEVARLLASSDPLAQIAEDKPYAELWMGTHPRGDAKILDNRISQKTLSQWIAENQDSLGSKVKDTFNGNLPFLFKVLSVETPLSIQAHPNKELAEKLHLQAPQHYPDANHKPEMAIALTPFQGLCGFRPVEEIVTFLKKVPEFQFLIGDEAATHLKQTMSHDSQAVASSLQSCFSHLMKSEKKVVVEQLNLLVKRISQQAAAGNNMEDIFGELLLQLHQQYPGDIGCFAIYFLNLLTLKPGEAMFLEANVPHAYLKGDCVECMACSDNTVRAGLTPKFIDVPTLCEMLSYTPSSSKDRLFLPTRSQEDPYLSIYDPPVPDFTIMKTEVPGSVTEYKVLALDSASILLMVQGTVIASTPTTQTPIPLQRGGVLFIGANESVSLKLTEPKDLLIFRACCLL

[16] = biological target: T3, Mannose-6-phosphate isomerase; assay: human PMI inhibitors, high substrate, primary screen, biochemical, fluorescence intensity, high mannose 6-phosphate (AID 1220)
[17] = biological target: Endoplasmic reticulum aminopeptidase 1 (Homo sapiens, UniProt Q9NZ08); assay: ERAP1 aminopeptidase inhibitors, dose response, biochemical, cherry-pick, set 2, plate reader (AID 743314)
[18] = biological target: T4, Cytochrome P450 1A2 (Homo sapiens, UniProt P05177);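 also: PubChem cytochrome P450 panel assay, CYP1A2 panel member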
T4 sequence (P05177 whole entry): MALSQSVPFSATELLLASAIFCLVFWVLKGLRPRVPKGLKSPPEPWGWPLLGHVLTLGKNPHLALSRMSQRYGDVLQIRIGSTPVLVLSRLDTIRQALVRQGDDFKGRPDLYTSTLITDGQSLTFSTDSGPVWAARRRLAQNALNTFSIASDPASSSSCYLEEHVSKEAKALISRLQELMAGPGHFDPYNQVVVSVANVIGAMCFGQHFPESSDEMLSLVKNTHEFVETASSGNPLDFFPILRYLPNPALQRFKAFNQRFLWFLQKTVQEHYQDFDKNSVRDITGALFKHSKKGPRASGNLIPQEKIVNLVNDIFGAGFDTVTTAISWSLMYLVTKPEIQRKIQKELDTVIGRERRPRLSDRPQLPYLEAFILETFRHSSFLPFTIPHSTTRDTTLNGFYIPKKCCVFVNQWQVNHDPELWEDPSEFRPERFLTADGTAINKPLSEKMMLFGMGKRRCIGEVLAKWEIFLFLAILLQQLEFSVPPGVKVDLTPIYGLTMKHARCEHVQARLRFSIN

[19] = biological target: Cytochrome P450 3A4 (Homo sapiens, UniProt P08684);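 also: CYP3A4 tested as one member of a cytochrome P450 panel screen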
Sequence of Cytochrome P450 3A4 (P08684 whole entry): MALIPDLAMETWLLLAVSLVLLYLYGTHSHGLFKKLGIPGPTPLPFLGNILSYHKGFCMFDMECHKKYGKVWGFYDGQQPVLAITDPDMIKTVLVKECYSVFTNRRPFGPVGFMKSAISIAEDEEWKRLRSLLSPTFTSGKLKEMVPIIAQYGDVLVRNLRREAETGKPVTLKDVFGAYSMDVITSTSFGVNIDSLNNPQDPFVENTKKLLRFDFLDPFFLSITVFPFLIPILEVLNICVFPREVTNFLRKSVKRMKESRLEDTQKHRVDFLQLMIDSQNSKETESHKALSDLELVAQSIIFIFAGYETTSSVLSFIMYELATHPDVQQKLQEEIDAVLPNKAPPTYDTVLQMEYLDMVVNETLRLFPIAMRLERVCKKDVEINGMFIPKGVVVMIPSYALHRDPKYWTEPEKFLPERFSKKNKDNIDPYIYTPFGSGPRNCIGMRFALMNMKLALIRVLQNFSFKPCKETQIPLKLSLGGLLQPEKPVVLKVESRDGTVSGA

Sequence of Protein-tyrosine kinase 2-beta (Q14289 whole entry): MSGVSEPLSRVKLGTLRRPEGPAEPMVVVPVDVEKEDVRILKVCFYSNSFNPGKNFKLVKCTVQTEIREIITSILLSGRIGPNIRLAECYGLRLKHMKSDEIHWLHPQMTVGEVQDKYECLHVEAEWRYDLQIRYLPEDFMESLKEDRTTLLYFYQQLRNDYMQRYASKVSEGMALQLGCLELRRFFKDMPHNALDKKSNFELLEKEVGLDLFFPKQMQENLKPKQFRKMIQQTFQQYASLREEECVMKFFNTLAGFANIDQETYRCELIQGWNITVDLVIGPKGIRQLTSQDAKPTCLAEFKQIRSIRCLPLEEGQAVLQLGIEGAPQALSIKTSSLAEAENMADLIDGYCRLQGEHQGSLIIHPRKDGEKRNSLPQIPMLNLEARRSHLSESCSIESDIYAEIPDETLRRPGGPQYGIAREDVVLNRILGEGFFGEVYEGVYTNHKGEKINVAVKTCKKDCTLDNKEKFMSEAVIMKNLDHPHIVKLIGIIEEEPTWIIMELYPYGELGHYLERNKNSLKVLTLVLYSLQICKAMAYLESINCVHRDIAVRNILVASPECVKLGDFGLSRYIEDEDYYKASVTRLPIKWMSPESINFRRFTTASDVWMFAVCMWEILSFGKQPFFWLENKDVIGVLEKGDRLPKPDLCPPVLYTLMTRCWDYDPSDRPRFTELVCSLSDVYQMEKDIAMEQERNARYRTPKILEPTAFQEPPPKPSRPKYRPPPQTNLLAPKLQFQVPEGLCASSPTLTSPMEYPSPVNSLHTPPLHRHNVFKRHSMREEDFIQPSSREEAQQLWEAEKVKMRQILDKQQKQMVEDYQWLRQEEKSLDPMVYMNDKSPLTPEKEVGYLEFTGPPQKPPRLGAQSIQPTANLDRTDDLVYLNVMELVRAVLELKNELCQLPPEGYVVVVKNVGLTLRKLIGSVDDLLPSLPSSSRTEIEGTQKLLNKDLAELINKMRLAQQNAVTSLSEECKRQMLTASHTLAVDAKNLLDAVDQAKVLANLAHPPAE
Sequence of Cytochrome P450 2C9 (P11712 whole entry): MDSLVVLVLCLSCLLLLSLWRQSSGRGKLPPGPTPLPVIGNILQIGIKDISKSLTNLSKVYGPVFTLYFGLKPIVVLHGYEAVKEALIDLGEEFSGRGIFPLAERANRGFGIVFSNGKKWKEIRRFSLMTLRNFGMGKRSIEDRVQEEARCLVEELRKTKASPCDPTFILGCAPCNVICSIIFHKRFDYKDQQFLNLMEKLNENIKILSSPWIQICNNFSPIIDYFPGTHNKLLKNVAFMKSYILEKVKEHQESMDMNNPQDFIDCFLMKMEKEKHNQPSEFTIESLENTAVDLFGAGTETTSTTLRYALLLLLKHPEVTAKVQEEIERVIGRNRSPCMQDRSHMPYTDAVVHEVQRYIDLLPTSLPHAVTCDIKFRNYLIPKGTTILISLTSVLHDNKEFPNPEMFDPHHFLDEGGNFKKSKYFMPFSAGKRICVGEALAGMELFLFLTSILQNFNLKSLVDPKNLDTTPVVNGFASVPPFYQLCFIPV
Sequence of Endoplasmic reticulum aminopeptidase 1 (Q9NZ08 whole entry): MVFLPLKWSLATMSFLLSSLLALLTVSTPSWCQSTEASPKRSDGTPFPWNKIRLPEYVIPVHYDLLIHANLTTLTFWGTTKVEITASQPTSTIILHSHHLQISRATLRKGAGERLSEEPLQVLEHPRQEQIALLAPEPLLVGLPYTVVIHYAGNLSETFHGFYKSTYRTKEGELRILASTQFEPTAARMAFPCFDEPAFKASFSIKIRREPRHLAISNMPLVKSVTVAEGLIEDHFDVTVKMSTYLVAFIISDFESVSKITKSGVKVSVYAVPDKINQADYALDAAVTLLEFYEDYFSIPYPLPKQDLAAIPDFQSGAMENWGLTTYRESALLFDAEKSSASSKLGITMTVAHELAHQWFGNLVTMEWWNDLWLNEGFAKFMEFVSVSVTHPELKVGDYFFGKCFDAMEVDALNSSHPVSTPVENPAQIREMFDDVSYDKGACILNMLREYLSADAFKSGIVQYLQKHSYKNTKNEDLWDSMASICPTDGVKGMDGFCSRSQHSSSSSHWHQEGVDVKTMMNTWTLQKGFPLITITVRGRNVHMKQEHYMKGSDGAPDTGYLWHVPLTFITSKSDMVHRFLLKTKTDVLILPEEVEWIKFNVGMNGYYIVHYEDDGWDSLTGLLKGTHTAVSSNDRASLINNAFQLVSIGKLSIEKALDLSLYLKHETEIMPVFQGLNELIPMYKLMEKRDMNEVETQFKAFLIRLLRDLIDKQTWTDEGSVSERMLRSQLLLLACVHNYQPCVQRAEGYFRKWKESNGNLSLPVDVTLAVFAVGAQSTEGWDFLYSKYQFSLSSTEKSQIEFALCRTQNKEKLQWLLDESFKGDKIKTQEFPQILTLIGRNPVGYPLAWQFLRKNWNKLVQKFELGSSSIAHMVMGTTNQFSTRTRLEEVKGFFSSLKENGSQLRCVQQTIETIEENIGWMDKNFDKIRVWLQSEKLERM
Sequence of 26S proteasome non-ATPase regulatory subunit 14 (O00487 whole entry): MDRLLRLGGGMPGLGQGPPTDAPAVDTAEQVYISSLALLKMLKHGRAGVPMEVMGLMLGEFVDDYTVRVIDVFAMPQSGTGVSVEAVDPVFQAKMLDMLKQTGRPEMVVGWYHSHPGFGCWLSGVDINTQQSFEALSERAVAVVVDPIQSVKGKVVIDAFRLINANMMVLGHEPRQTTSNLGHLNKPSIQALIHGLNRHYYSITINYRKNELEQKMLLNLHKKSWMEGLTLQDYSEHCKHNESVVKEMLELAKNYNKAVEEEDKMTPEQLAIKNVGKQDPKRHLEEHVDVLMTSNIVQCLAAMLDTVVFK
Sequence of 72 kDa type IV collagenase (P08253 whole entry): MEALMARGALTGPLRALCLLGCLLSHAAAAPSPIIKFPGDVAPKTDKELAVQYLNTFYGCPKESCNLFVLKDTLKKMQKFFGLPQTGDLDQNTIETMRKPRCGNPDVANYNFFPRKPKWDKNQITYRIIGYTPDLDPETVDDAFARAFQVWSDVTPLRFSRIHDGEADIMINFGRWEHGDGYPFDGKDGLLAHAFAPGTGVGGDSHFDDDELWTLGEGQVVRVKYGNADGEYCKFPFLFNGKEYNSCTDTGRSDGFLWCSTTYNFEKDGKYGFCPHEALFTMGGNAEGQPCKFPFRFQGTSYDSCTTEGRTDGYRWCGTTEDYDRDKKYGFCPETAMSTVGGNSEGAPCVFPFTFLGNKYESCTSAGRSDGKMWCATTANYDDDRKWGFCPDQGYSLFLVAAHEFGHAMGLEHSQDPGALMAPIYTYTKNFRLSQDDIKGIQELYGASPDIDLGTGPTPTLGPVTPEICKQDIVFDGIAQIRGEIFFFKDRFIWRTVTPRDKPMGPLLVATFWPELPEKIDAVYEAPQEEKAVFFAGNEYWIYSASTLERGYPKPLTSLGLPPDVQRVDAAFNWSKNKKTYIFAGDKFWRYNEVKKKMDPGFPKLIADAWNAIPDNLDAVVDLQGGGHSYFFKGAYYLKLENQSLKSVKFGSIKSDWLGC
Sequence of Large T antigen (P03070 whole entry): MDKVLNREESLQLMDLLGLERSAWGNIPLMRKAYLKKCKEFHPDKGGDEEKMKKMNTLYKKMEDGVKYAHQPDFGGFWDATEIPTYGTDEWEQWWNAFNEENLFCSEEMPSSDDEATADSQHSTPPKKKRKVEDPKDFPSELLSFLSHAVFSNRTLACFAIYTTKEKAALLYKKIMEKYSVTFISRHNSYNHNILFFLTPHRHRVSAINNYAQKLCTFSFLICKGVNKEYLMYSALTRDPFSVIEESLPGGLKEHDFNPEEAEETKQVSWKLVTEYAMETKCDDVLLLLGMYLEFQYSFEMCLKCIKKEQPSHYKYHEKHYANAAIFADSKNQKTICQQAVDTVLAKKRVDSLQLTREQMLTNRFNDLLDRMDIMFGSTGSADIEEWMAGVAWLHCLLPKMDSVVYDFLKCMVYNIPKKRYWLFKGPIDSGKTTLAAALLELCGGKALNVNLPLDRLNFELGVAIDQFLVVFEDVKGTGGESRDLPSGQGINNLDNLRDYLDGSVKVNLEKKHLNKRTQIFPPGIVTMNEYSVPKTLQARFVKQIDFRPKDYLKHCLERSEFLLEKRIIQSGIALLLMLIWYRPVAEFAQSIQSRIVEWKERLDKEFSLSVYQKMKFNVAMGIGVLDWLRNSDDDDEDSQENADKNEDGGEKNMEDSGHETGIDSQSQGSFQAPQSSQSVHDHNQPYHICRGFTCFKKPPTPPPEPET
Sequence of Mothers against decapentaplegic homolog 3 (P84022 whole entry): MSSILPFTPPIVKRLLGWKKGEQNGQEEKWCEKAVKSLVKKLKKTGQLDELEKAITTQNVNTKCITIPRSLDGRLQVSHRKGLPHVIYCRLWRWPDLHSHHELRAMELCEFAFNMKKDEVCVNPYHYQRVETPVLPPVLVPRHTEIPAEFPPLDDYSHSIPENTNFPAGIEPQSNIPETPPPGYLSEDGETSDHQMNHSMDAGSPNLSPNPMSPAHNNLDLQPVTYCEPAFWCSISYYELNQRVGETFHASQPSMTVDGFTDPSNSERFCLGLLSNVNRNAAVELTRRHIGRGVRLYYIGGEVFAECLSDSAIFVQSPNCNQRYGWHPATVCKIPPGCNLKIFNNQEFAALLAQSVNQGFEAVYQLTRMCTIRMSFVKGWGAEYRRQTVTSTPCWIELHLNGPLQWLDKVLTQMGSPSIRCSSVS

Structure (SMILES): O=C(NCCCN1CCCCCC1)c1ccc(CS(=O)(=O)Cc2ccccc2F)o1
- IC50 [1]: 4.1 µM (active)
- IC50 [2]: 13.1 µM (not active)
- IC50 [3]: 7.28 µM (active)
- IC50 [4]: > 100 µM (inactive)
- IC50 [5]: 68.8 µM (active)

Structure (SMILES): CC[C@H](C)C(=O)O[C@@H]1CCC=C2C=C[C@H](C)[C@@H](CC[C@H]3C[C@@H](O)CC(=O)O3)[C@H]21
- AC50 [6]: 39.8 µM (inconclusive)

Structure (SMILES): COc1ccc(C[C@@H]2NC[C@H](O)[C@H]2OC(C)=O)cc1
- AC50 [7]: 20 µM (inconclusive)

Structure (SMILES): CC(C)CN=c1cc(-c2ccccc2)oc2ccc(Cl)cc12
- IC50 [8]: > 79.4 µM (not active)

Structure (SMILES): CCOc1cc(/C=N/Nc2cccc(C(=O)O)c2)ccc1OC(=O)c1ccccc1
- EC50 [9]: 3.53 µM (active)
- EC50 [10]: > 150 µM (not active)
- IC50 [11]: 3.03 µM (active)
- EC50 [12]: 17 µM (active)
- AC50 [13]: 1.38 µM (active)

Structure (SMILES): O=c1ccc2cc(O)c(O)cc2o1 [ESCULETIN]
- IC50 [14]: 25.9 µM (active)
- IC50 [15]: > 50 µM (not active)
- IC50 [16]: > 50 µM (not active)
- AC50 [17]: 9.72 µM (active)
- AC50 [18]: 15.8 µM (inconclusive)
- AC50 [19]: 12.6 µM (inconclusive)
